This passage reports IC50 results from PMC12064818, “A general assay platform to study protein pharmacology using ligand-dependent structural dynamics” (Nature Communications, 2025).

The target in this assay is T1, FLuc-C-HiBiT (Photinus pyralis, UniProt P08659).
T1 construct: firefly luciferase with C-terminal HiBiT tag, E. coli expressed
The assay can be described thus: biochemical. The following applies: enzyme activity, 10 uM ATP; read-out: IC50 or SDR50 (mM) / FLuc E.

T1 sequence (P08659 whole entry, looked up): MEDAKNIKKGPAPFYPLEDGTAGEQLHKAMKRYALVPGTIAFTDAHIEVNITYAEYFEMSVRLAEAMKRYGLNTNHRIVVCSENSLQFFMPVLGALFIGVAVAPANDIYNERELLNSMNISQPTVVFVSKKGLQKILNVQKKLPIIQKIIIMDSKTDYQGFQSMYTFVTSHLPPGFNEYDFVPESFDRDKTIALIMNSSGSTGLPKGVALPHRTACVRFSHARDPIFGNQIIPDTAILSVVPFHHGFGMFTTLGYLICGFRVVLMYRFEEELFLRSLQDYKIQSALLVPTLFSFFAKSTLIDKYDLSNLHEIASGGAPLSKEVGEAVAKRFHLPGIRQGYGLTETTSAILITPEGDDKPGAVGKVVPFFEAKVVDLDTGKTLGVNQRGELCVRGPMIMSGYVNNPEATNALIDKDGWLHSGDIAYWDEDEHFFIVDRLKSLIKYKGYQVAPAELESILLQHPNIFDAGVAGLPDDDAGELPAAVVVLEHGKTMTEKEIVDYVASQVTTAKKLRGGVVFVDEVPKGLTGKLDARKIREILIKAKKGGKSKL

Consider `CCn1c(C2CCCN(C(=O)Nc3ccc4c(c3)OCCO4)C2)nn(C)c1=O` (stereo not shown) [NCGC00439046-01], for which the IC50 is 0.0111 mM.
With `CSCC(=O)Nc1nn(-c2ccc(F)cc2)c2cccc(N3CCOCC3)c12` [NCGC00439780-01] the figure was 0.00989 mM; with `O=C(Nc1ccc2c(c1)OCCO2)C1CN([S+](=O)([O-])C2CC2)CC12CCCCC2` (stereo not shown) [NCGC00439803-01], 0.00442 mM; with `Cc1c(-c2ccccc2)[nH]c2c(CNC(=O)C3=NN(C)C(=O)CC3)cc(Cl)cc12` [NCGC00439904-01], 0.0124 mM.
With `C[C@@H]1CN(c2nc(-c3ccccc3)no2)CC[C@@]1(O)C1CCC1` [NCGC00439928-01], the IC50 was determined as 0.00176 mM.
With `COc1ccc(-c2cc3nc4c(c(=O)n3[nH]2)CN(C(=O)NCc2ccco2)CC4)cc1` [NCGC00440289-01] the figure was 0.0111 mM; with `OCC1(CC2CC2)CCCN(c2nc(-c3ccccc3)no2)C1` (stereo not shown) [NCGC00440394-01], > 0.03 mM; with `COCCNc1cc(-c2ccc3ccccc3n2)c2cc[nH]c2n1` [NCGC00440476-01], 0.0124 mM.
For `O=C(Nc1nn(-c2cccc(F)c2)c2cccc(N3CCOCC3)c12)C1CCC1` [NCGC00440498-01], the IC50 worked out at 0.0111 mM.
As to `c1ccc(CCCc2noc(-c3ccc(NCc4ccccn4)nc3)n2)cc1` [NCGC00440648-01], the IC50 was > 0.03 mM.
On to `CCc1nc(-c2ccc(OC3CCN(C(=O)C4CC4)C3)cc2)no1` (stereo not shown) [NCGC00440987-01], for which the IC50 came out at 0.0124 mM.
In the case of `O=C(c1ccncc1)N1CCC(Oc2ccc(-c3noc(-c4ccccc4)n3)cc2)C1` (stereo not shown) [NCGC00440993-01] it was 0.0124 mM; in that of `Cc1nc(C)c(C(=O)N2CCC(Oc3ccc(-c4noc(-c5ccccc5)n4)cc3)C2)s1` (stereo not shown) [NCGC00440995-01], 0.0111 mM; in that of `Cc1ncccc1C(=O)N1CCC(Oc2ccc(-c3noc(-c4ccccc4)n3)cc2)C1` (stereo not shown) [NCGC00440997-01], 0.0111 mM.
In the case of `O=C(c1ccccn1)N1CCC(Oc2ccc(-c3noc(-c4ccccc4)n3)cc2)C1` (stereo not shown) [NCGC00441001-01] it was 0.0111 mM; in that of `O=C(NCc1ccc(F)cc1)N1CC(Oc2ccc(-c3nc(-c4ccccc4)no3)cc2)C1` [NCGC00441109-01], > 0.03 mM.
With `O=C(Nc1ccccc1)N1CC(Oc2ccc(-c3nc(-c4ccccc4)no3)cc2)C1` [NCGC00441117-01] the figure was 0.0111 mM; with `CCNC(=O)N1CC(Oc2ccc(-c3nc(-c4ccccc4)no3)cc2)C1` [NCGC00441125-01], 0.00556 mM; with `Cc1cc(CNC(=O)CC2C=C[S+](=O)([O-])C2)c2[nH]c(-c3ccccc3)c(C)c2c1` (stereo not shown) [NCGC00441154-01], 0.0111 mM.
Consider `O=C(Cc1cccc(F)c1)N1CC(Oc2ccc(-c3nc(-c4ccccc4)no3)cc2)C1` [NCGC00441157-01], for which the IC50 stood at 0.0124 mM.
In the case of `c1ccc(-c2noc(-c3ccc(OC4CNC4)cc3)n2)cc1` [NCGC00441173-01] it was 0.00279 mM.
For `Cc1ncccc1C(=O)N1CC(Oc2ccc(-c3nc(-c4ccccc4)no3)cc2)C1` [NCGC00441179-01], the IC50 worked out at 0.00624 mM.
In the case of `OC1CCCN(c2ccc(-c3nc(-c4cccc(C(F)(F)F)c4)no3)cn2)C1` (stereo not shown) [NCGC00441254-01], the IC50 came out at 0.00556 mM.
In the case of `O=C(O)C1(Oc2ccc3ccccc3c2)CCN(c2ncnc3[nH]cnc23)CC1` [NCGC00441641-01] it was > 0.03 mM; in that of `C[C@@H]1CN(c2cnc3ccccc3n2)CC[C@@]1(O)C1CCC1` [NCGC00441645-01], 0.0111 mM.
For the compound `CCn1ccnc1C1CCN(c2nc3ccccc3s2)CC1` [NCGC00442461-01], the IC50 amounted to 0.00989 mM.
In the case of `Cc1c(-c2ccc(F)cc2)[nH]c2ccc(CNC(=O)CN3CCOC3=O)cc12` [NCGC00442659-01] it was 0.0111 mM; in that of `CNc1nc(C(=O)NCc2ccc3[nH]c(-c4ccc(F)cc4)c(C)c3c2)cs1` [NCGC00443141-01], 0.0111 mM.
In the case of `OC1(CN2CCCN(c3nc4ccccc4s3)CC2)CNCCOC1` (stereo not shown) [NCGC00443145-01], the IC50 was > 0.03 mM.
Take `Cc1cc(C)n(CCC(=O)N2CCC(Cc3noc(C4CC4)n3)C2)n1` (stereo not shown) [NCGC00443208-01]: the IC50 was > 0.03 mM.
With `c1ccc(CCCNc2nccc(-c3ccccn3)n2)nc1` [NCGC00443451-01] the figure was > 0.03 mM.
With `COc1ccc2c(C)c(-c3nc(C4CCOC4)no3)oc2c1` (stereo not shown) [NCGC00443479-01] the figure was > 0.03 mM; with `c1c(-c2nc(C3CCOC3)no2)sc2c1CCCC2` (stereo not shown) [NCGC00443783-01], 0.00556 mM.
For `NC(=O)[C@@H]1CCCN1C(=O)c1ccc2oc(-c3cccc(F)c3)nc2c1` [NCGC00444081-01], the IC50 is > 0.03 mM.
In the case of `CC1(Cc2ccc3c(c2)OCO3)CCCN(C(=O)c2ccc3ncsc3c2)C1` (stereo not shown) [NCGC00444241-01] it was 0.00989 mM; in that of `O=C(NCCc1c[nH]cn1)c1ccc2nc(-c3ccc(F)cc3)cn2c1` [NCGC00444507-03], 0.014 mM; in that of `O=C(NCC1CCCN(C(=O)N2CCCC2)C1)c1ccc(-c2ccccc2)cc1` (stereo not shown) [NCGC00444515-01], 0.0124 mM.
In the case of `c1nc(N2C[C@@H](c3ccc4c(c3)OCO4)[C@@H]3[C@H]2C2CCN3CC2)c2nc[nH]c2n1` [NCGC00444647-01] it was > 0.03 mM.
With `OCc1ccnc(-c2ccc(-c3ccn[nH]3)cc2)c1` [NCGC00444969-01] the figure was 0.00989 mM; with `CCOc1cccc(-c2nc(C3CCOC3)no2)c1` (stereo not shown) [NCGC00445015-01], > 0.03 mM; with `COc1ccc(N2CCN(C(=O)Cn3cccc3-c3nc(-c4ccc5c(c4)OCO5)no3)CC2)cc1` [NCGC00445315-01], > 0.03 mM.
Turning to `CCCc1ccc(-c2nc(C3CCOC3)no2)cc1` (stereo not shown) [NCGC00445403-01], the IC50 is 0.007 mM.
On to `COc1ccc(C(=O)NCCn2cccc2-c2nc(-c3ccccc3)no2)cc1` [NCGC00445570-01], for which the IC50 stood at 0.00279 mM.
In the case of `O=C(NCCn1cccc1-c1nc(-c2ccc3c(c2)OCO3)no1)c1ccc(Cl)cc1` [NCGC00445582-01] it was 0.00989 mM; in that of `Cc1ccc(C(=O)NCCn2cccc2-c2nc(-c3ccc4c(c3)OCO4)no2)cn1` [NCGC00445612-01], 0.0111 mM; in that of `Cc1cc(NCCc2cnccn2)nc(-c2ccccc2O)n1` [NCGC00445970-01], > 0.03 mM.
Regarding `CCCn1ncc(-c2nc(-c3ccncc3)no2)c1C` [NCGC00445972-01], the IC50 stood at 0.00881 mM.
In the case of `c1ccc(COc2ccc(CN3CCSCC3)cc2)nc1` [NCGC00446150-01] it was 0.0124 mM.
On to `c1ccc(-c2ccnc(NCCc3c[nH]c4ccccc34)n2)nc1` [NCGC00446312-01], for which the IC50 was found to be 0.0197 mM.
With `Cc1nc2ccc(-c3nc(C4CCOC4)no3)cc2s1` (stereo not shown) [NCGC00446448-01] the figure was 0.0111 mM.
Regarding `Cc1ccc(C2=NOC3(CCN(C(=O)c4cccc(N(C)C)c4)CC3)N2)cc1` [NCGC00446875-01], the IC50 is 0.00989 mM.
In the case of `CSCc1nc(-c2ccncc2)nn1Cc1ccc2c(c1)OCO2` [NCGC00447092-01] it was > 0.03 mM.
In the case of `Cc1ccc(-c2nc(C(=O)N(C)Cc3ccccc3)no2)cc1` [NCGC00447109-01] it was 0.0124 mM.
As to `Cc1ccc(-c2nc(C(=O)N3CCN(c4ccccc4)CC3)no2)cc1` [NCGC00447113-01], the IC50 came to 0.0111 mM.
With `COc1ccc(N2CCN(C(=O)c3noc(-c4ccc(C)cc4)n3)CC2)cc1` [NCGC00447127-01] the figure was 0.00989 mM; with `Cc1ccc(-c2nc(C(=O)N3CCN(c4ccccn4)CC3)no2)cc1` [NCGC00447133-01], 0.00785 mM; with `Nc1nc(N2CCC3(CC2)NC(=O)CC3C(=O)O)c2nc[nH]c2n1` (stereo not shown) [NCGC00447244-01], > 0.03 mM.
For the compound `c1ccc2cc(-c3nc(C4CCOC4)no3)ncc2c1` (stereo not shown) [NCGC00447332-01], the IC50 turned out to be 0.0176 mM.
In the case of `CC1CCC(NC(=O)c2noc(-c3ccccc3F)n2)CC1` (stereo not shown) [NCGC00447353-01] it was 0.0124 mM; in that of `CN(C)c1ccc(-c2nc(C3CCOC3)no2)cc1` (stereo not shown) [NCGC00447436-01], 0.00989 mM.
For `O=C1NCCCc2[nH]c(-c3cc(-c4cccc(F)c4)no3)nc21` [NCGC00447462-01], the IC50 was 0.007 mM.
In the case of `Cn1nc(-c2ccc3c(c2)OCCO3)nc1N1CCCCC1` [NCGC00447616-01] it was 0.00989 mM; in that of `CSc1ccc(-c2nc3c([nH]2)CC(C)(C)CNC3=O)cc1` [NCGC00448280-01], 0.0124 mM.
In the case of `COc1cccc(-c2ccc(-c3nc(C4CCOC4)no3)o2)c1` (stereo not shown) [NCGC00448436-01] it was 0.00989 mM; in that of `CC(C)n1cnnc1CN(C)c1nc(N)nc2[nH]cnc12` [NCGC00449084-01], > 0.03 mM.
In the case of `Cc1ccc(C2Cn3nnc(C(=O)N4CCC(C(=O)NC5CC5)CC4)c3CO2)cc1` (stereo not shown) [NCGC00449485-01] it was 0.00785 mM.
Regarding `Cc1ccc(C2Cn3nnc(C(=O)N4CCC(C(=O)NCCc5ccccc5)CC4)c3CO2)cc1` (stereo not shown) [NCGC00449535-01], the IC50 is 0.0111 mM.
Take `Cc1ccc(C2Cn3nnc(C(=O)N4CCC(C(=O)NCCc5cccs5)CC4)c3CO2)cc1` (stereo not shown) [NCGC00449541-01]: the IC50 was 0.00989 mM.
As to `Cc1ccc(C2Cn3nnc(C(=O)N4CCC(C(=O)NCc5ccccn5)CC4)c3CO2)cc1` (stereo not shown) [NCGC00449551-01], the IC50 came to 0.0111 mM.
In the case of `Cc1ccc(C2Cn3nnc(C(=O)N4CCC(C(=O)NCc5ccncc5)CC4)c3CO2)cc1` (stereo not shown) [NCGC00449555-01] it was 0.0111 mM.
In the case of `COCCNC(=O)C1CCN(C(=O)c2nnn3c2COC(c2ccc(C)cc2)C3)CC1` (stereo not shown) [NCGC00449559-01] it was 0.00495 mM.
With `Cc1ccc(C2Cn3nnc(C(=O)N4CCC(C(=O)NCCN5CCCC5)CC4)c3CO2)cc1` (stereo not shown) [NCGC00449567-01] the figure was 0.00989 mM; with `Cc1ccc(C2Cn3nnc(C(=O)N4CCC(C(=O)Nc5ccccc5)CC4)c3CO2)cc1` (stereo not shown) [NCGC00449585-01], 0.0111 mM; with `Cc1ccc(C2Cn3nnc(C(=O)N4CCC(C(=O)Nc5ccc(F)cc5)CC4)c3CO2)cc1` (stereo not shown) [NCGC00449591-01], 0.0111 mM.
For `CCCc1noc(-c2nc(-c3ccccc3F)no2)n1` [NCGC00450039-01], the IC50 came to 0.00989 mM.
With `CCc1noc(-c2nc(-c3ccccc3F)no2)n1` [NCGC00450040-01], the IC50 was 0.0157 mM.
